Patent publication US6583179B2, “Substituted aminoalkylamide derivatives as antagonists of follicle stimulating hormone” (Ortho-McNeil Pharmaceutical, Inc., priority 1999, dated 2003)

System: Rat Granulosa Cell
Test: Rat granulosa cell FSH-stimulated cAMP production
Type: cell-based
Settings: inhibition of cAMP produced by EC70 dose of FSH (1.4 nM), maximum concentration 50 μM
Description: Insulin, diethylstilbesterol, androstenedione, forskolin and DMSO were purchased from Sigma (St. Louis, Mo.). Fungizone, penicillin/streptomycin, charcoal-treated heat inactivated fetal bovine serum (CT-HI-FBS) and Dulbecco's Modified Eagle Medium:Hams F12 medium containing 15 mM Hepes and L-glutamine (DMEM:F12), were purchased from GIBCO BRL (Grand Island, N.Y.).
Ovine FSH (NIADDK-oFSH-17; FSH potency=20 NIH-FSH-S1 U/mg; LH contamination=0.04 times NIH-LH-S1) was received from Ogden Bioservices Corporation, Rockville, Md. Human FSH (Fertinex), was purchased from Serono Pharmaceutical (Framingham, Mass.). Human chorionic gonadotropin (hCG) was purchased from Sigma (St Louis, Mo.).
Immature intact female rats (Wistar-derived strain; 21-23 days old) were implanted with a single pellet (Innovative Research of America, Sarasota, Fla.) containing 2.5 mg diethylstilbesterol (DES) for 3 days. On the third day, the animals were sacrificed, the ovaries were removed, and the granulosa cells were isolated essentially as described in Haynes-Johnson et al., Biol. Reprod., 61 (1), 147-153, (1999). Granulosa cells were plated at a density of 300,000 cells per ml with 0.2 ml added to each well of 96 well culture dishes (Corning, N.Y.). Cultures were incubated at 37° C. in a humidified incubator (95% air, 5% CO2) overnight (18 hours).
Androstenedione (100,000X) was prepared by dissolving the steroid in 100% ethanol, and was subsequently diluted to a final concentration of 10^−7M containing 0.1% ethanol in assay media. The assay media was serum-free, DES-free, insulin-free media, prepared by adding 5 mL pen-strep,1.5 mL fungizone and 5 μL androstenedione to 493.5 mL DMEM F-12 media.
Test compounds were solubilized in 30% dimethyl sulfoxide (DMSO) at a concentration of 10 mM before diluting to appropriate concentrations in assay medium. The final DMSO concentration in the treated cells and in the control cells was 0.75%.
Test plates containing the granulosa cells were preincubated for 18 hours at 37° C. with 95% air, 5% CO2, 100% humidity. The spent media was removed and 50 μl assay media (DMEM:F12) containing 2 mM IBMX (3-isobutyl-1-methyl-xanthine) was added to the cells. Compounds (25 μl) in the appropriate concentration were added followed 5 minutes later by an EC70 dose of FSH (25 μl; 50 ng/ml; 1.4 nM). After 30 minutes @ 22.5° C. (room temperature) the reaction was terminated by addition of 25 μL 0.5 N hydrochloric acid to each well. The amount of cAMP produced was measured by radioimmunoassay in a FlashPlate (DuPont, Boston, Mass.). To each flash plate 60 μL flash plate buffer was added followed by 40 μL acidified cell sample or cAMP standard, followed with the addition of 100 μl ^125l-cAMP trace. The FlashPlates were sealed, incubated overnight @ room temperature, and counted in a Packard TopCount (Packard Instrument Co., Meriden, Conn.). The cAMP radioimmunoassay results were calculated using DPM conversion and log-logit transformation of % binding (Excel program).

SMILES | EC50
C[C@@H](CN(CC(=O)NCc1ccc(CN)cc1)S(=O)(=O)c1ccc(-c2ccccc2Cl)cc1)c1ccccc1 [Compound 198] | 20 nM
Cc1ccccc1-c1ccc(S(=O)(=O)N(CC(=O)NCc2ccc(CN)cc2)C[C@@H](C)c2ccccc2)cc1 [Compound 215] | 10 nM
